Measured values taken from the supplement of paper PMC10307832.

How the values were obtained:
Test in all cases: relative viability (nuclei count vs DMSO), 5 days (fraction); higher = more cells survive
Irinotecan + Olaparib = compound: CCc1c2c(nc3ccc(OC(=O)N4CCC(N5CCCCC5)CC4)cc13)-c1cc3c(c(=O)n1C2)COC(=O)[C@]3(O)CC [Irinotecan] + O=C(c1cc(Cc2n[nH]c(=O)c3ccccc23)ccc1F)N1CCN(C(=O)C2CC2)CC1 [Olaparib] (partner 8 µM)
Procedure, shortened: (§1)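 A single step with final 0.05% Triton X-100, 1% formaldehyde and 1 ug/ml Hoechst fixed the cells and stained nuclei 5 days after treatment. Lung cancer cell lines in 1536-well plates had been treated by pin tool the day after seeding with one drug alone or a fixed anchor-drug dose plus five library-drug doses (not always all listed) in √10 steps, and nuclei were counted on 4× images. Relative viability is the ratio of nuclei in treated wells to nuclei in vehicle wells, taken as the median of duplicate plates.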

MK-8033 + Decitabine = compound: Cn1cc(-c2cnc3ccc4ccc(CS(=O)(=O)NCc5ccccn5)cc4c(=O)c3c2)cn1 [MK-8033] + Nc1ncn([C@H]2C[C@H](O)[C@@H](CO)O2)c(=O)n1 [Decitabine] (partner 2 µM)
Procedure, shortened: as §1

MK-8033 + Lapatinib = compound: Cn1cc(-c2cnc3ccc4ccc(CS(=O)(=O)NCc5ccccn5)cc4c(=O)c3c2)cn1 [MK-8033] + CS(=O)(=O)CCNCc1ccc(-c2ccc3ncnc(Nc4ccc(OCc5cccc(F)c5)c(Cl)c4)c3c2)o1 [Lapatinib] (partner 2 µM)
Procedure, shortened: as §1

Irinotecan + Luminespib = compound: CCc1c2c(nc3ccc(OC(=O)N4CCC(N5CCCCC5)CC4)cc13)-c1cc3c(c(=O)n1C2)COC(=O)[C@]3(O)CC [Irinotecan] + CCNC(=O)c1noc(-c2cc(C(C)C)c(O)cc2O)c1-c1ccc(CN2CCOCC2)cc1 [Luminespib] (partner 0.01 µM)
Procedure, shortened: as §1

Cell Line | relative viability (Irinotecan + Olaparib; first compound 2 µM) | relative viability (Irinotecan + Olaparib; first compound 6.325 µM) | relative viability (Irinotecan + Olaparib; first compound 20 µM) | relative viability (MK-8033 + Decitabine; first compound 0.02 µM) | relative viability (MK-8033 + Decitabine; first compound 0.06325 µM) | relative viability (MK-8033 + Decitabine; first compound 0.2 µM) | relative viability (MK-8033 + Decitabine; first compound 0.6325 µM) | relative viability (MK-8033 + Decitabine; first compound 2 µM) | relative viability (MK-8033 + Lapatinib; first compound 0.02 µM) | relative viability (MK-8033 + Lapatinib; first compound 0.06325 µM) | relative viability (MK-8033 + Lapatinib; first compound 0.2 µM) | relative viability (MK-8033 + Lapatinib; first compound 0.6325 µM) | relative viability (MK-8033 + Lapatinib; first compound 2 µM) | relative viability (Irinotecan + Luminespib; first compound 0.6325 µM) | relative viability (Irinotecan + Luminespib; first compound 2 µM) | relative viability (Irinotecan + Luminespib; first compound 6.325 µM) | relative viability (Irinotecan + Luminespib; first compound 20 µM) | relative viability (Irinotecan + Olaparib; first compound 0.6325 µM)
NCI-H460 | 0.214 | 0.0942 | 0.125 | 0.525 | 0.439 | 0.446 | 0.451 | 0.475 | 0.968 | 0.897 | 0.907 | 1.13 | 0.793 | 0.019 | 0.0388 | 0.0428 | 0.047 | –
NCI-H520 | 0.277 | 0.309 | 0.145 | 0.525 | 0.485 | 0.527 | 0.535 | 0.465 | 0.959 | 0.853 | 0.784 | 0.867 | 0.79 | 0.249 | 0.257 | 0.256 | 0.303 | 0.23
NCI-H596 | 0.707 | 0.64 | 0.828 | 0.987 | 0.901 | 0.921 | 1.12 | 1.03 | 1.12 | 0.977 | 1.05 | 1.02 | 1.17 | 0.884 | 0.963 | 0.71 | 0.801 | 0.638
NCI-H647 | 0.205 | 0.14 | 0.0986 | 0.33 | 0.362 | 0.382 | 0.372 | 0.305 | 0.892 | 1.02 | 0.798 | 1.09 | 1.05 | 0.152 | 0.212 | 0.157 | 0.119 | 0.194
NCI-H650 | 0.199 | 0.185 | 0.198 | 0.335 | 0.329 | 0.306 | 0.323 | 0.323 | 0.759 | 0.966 | 0.838 | 0.845 | 0.921 | 0.635 | 0.322 | 0.139 | 0.199 | 0.181
NCI-H661 | 0.556 | 0.396 | 0.233 | 0.528 | 0.441 | 0.53 | 0.531 | 0.528 | 0.384 | 0.417 | 0.482 | 0.453 | 0.438 | 0.848 | 0.822 | 0.41 | 0.195 | 0.583
NCI-H727 | 0.454 | 0.66 | 0.656 | 0.846 | 0.783 | 0.921 | 0.927 | 0.829 | 0.759 | 0.72 | 0.665 | 0.748 | 0.858 | 0.271 | 0.455 | 0.501 | 0.494 | 0.723
NCI-H838 | 0.441 | 0.238 | 0.18 | 0.458 | 0.442 | 0.476 | 0.469 | 0.445 | 0.902 | 0.844 | 0.925 | 0.927 | 0.911 | 0.23 | 0.262 | 0.213 | 0.266 | 0.632
NCI-H1355 | 0.321 | 0.278 | 0.209 | 0.363 | 0.309 | 0.36 | 0.335 | 0.318 | 0.979 | 0.865 | 0.865 | 0.988 | 0.909 | – | 0.515 | 0.308 | 0.278 | –
NCI-H1395 | 0.458 | 0.455 | 0.31 | 0.68 | 0.701 | 0.71 | 0.7 | 0.693 | 1.1 | 0.958 | 0.858 | 0.931 | 1.35 | 0.76 | 0.651 | 0.388 | 0.534 | –
NCI-H1437 | 0.429 | 0.316 | 0.272 | 0.615 | 0.585 | 0.511 | 0.626 | 0.549 | 0.736 | 0.773 | 0.793 | 0.834 | 0.749 | 0.955 | 0.723 | 0.4 | 0.338 | 0.434
NCI-H1650 | 0.436 | 0.296 | 0.139 | 0.445 | 0.429 | 0.422 | 0.452 | 0.403 | 0.823 | 0.69 | 0.737 | 0.709 | 0.707 | – | 0.212 | 0.277 | 0.271 | 0.722
NCI-H1651 | 0.142 | 0.107 | 0.117 | 0.706 | 0.606 | 0.653 | 0.694 | 0.649 | 0.842 | 0.658 | 0.874 | 0.892 | 0.762 | 0.573 | 0.522 | 0.281 | 0.2 | 0.164
NCI-H1666 | 0.726 | 0.654 | 0.671 | 0.792 | 0.746 | 0.728 | 0.766 | 0.736 | 0.708 | 0.505 | 0.519 | 0.656 | 0.587 | 0.858 | 0.721 | 0.658 | 0.331 | 0.672
NCI-H1734 | 0.184 | 0.143 | 0.179 | 0.562 | 0.463 | 0.478 | 0.504 | 0.481 | 1.11 | 0.88 | 1.02 | 1.09 | 1.01 | – | 0.203 | 0.222 | 0.353 | –
NCI-H1755 | 0.358 | 0.372 | 0.42 | 0.743 | 0.673 | 0.769 | 0.64 | 0.691 | 1.06 | 0.986 | 1.02 | 1.02 | 0.957 | 0.433 | 0.415 | 0.299 | 0.241 | 0.482
NCI-H1792 | 0.327 | 0.198 | 0.298 | 0.527 | 0.508 | 0.47 | 0.522 | 0.537 | 1.06 | 0.87 | 0.863 | 0.917 | 0.976 | 0.726 | 0.491 | 0.34 | 0.321 | 0.332
NCI-H1793 | 0.528 | 0.173 | 0.209 | 0.486 | – | 0.51 | 0.379 | 0.543 | 0.793 | – | 0.492 | 0.783 | 0.495 | – | 0.193 | 0.192 | 0.262 | –
